Publication PMC12155096 (International Journal of Molecular Sciences, 2025)
pIC50: −log10 of the molar value. Like-named read-outs stand apart in the source and are kept apart here.

Key:
human CYP1A2 = molecular target: T1, human CYP1A2 (Homo sapiens, UniProt P05177)
T1 sequence (P05177 1-516): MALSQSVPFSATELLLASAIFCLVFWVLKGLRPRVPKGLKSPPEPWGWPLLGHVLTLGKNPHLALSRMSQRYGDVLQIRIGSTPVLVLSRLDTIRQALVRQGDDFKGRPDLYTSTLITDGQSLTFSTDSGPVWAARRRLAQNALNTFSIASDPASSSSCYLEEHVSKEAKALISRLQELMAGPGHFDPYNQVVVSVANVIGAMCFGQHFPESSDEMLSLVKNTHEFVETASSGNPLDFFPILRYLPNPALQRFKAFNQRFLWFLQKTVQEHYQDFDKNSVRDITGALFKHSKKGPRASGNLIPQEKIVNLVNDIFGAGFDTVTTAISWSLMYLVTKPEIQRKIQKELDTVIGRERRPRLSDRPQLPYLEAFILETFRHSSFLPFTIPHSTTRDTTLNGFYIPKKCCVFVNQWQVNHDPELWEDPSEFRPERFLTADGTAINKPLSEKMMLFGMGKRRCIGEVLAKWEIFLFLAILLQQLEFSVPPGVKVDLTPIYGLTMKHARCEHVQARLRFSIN

CYP3A4 = CYP3A4 (Homo sapiens, UniProt P08684)
human CYP2C19 = human CYP2C19 (Homo sapiens, UniProt P33261)
human CYP2D6 = human CYP2D6 (Homo sapiens, UniProt P10635)
[1] = molecular target: Photinus pyralis (firefly) luciferase (Photinus pyralis, UniProt P08659); test: biochemical; type: biochemical
human CYP2C9 = human CYP2C9 (Homo sapiens, UniProt P11712)
[2] = read-out: Luciferase IC50 (half-maximal inhibitory concentration)

Chain of Photinus pyralis (firefly) luciferase (P08659 whole entry): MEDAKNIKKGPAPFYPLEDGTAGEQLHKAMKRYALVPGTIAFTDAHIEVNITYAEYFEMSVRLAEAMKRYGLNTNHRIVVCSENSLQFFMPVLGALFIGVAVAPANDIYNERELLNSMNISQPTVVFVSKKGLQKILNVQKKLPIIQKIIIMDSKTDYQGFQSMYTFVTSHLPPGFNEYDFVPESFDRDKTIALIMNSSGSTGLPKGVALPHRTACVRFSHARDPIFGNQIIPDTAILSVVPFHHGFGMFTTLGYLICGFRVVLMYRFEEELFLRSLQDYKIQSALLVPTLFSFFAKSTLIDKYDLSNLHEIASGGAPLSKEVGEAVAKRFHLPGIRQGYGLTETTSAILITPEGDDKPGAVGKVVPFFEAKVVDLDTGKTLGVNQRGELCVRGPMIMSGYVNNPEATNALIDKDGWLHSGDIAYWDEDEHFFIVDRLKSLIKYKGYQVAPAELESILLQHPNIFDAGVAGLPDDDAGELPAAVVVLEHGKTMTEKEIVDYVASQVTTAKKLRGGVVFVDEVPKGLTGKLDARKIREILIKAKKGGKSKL
Chain of human CYP2C9 (P11712 whole entry): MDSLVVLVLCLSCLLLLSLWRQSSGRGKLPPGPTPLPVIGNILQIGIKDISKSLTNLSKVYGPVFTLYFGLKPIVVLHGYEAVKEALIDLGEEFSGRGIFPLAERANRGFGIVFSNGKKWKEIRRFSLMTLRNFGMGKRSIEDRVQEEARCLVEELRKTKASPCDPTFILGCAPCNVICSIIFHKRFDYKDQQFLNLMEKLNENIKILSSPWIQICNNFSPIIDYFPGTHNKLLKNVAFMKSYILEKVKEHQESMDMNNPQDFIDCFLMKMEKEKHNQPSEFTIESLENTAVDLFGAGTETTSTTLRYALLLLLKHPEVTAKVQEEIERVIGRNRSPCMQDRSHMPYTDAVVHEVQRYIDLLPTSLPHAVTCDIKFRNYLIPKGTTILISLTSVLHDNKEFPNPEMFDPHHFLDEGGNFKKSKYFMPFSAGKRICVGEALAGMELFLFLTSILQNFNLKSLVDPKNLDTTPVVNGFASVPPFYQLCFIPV
Chain of human CYP2C19 (P33261 whole entry): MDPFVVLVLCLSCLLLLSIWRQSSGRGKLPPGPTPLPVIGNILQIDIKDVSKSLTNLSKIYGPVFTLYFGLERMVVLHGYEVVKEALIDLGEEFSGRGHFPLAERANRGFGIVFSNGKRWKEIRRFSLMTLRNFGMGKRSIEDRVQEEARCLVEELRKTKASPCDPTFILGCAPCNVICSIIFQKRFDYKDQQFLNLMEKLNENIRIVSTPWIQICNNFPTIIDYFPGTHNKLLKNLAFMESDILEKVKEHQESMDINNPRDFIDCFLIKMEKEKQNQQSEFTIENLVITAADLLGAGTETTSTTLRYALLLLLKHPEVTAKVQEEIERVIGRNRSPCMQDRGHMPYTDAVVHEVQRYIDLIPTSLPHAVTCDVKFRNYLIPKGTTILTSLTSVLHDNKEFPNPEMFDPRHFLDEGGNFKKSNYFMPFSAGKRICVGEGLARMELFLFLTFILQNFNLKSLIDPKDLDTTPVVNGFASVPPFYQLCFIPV
Chain of CYP3A4 (P08684 whole entry): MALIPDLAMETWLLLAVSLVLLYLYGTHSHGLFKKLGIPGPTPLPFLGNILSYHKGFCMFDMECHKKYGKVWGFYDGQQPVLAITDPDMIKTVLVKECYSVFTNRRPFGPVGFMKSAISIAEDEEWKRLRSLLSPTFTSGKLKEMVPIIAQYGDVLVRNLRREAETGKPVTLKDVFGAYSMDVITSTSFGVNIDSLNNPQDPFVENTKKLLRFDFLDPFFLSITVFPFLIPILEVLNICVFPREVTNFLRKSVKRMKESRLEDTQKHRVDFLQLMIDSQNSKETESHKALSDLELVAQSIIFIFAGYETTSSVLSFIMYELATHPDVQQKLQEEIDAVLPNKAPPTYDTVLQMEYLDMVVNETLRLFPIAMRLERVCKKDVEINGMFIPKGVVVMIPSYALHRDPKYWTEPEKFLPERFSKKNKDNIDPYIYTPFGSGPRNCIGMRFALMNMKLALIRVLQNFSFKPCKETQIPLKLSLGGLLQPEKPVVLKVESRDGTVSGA
Chain of human CYP2D6 (P10635 whole entry): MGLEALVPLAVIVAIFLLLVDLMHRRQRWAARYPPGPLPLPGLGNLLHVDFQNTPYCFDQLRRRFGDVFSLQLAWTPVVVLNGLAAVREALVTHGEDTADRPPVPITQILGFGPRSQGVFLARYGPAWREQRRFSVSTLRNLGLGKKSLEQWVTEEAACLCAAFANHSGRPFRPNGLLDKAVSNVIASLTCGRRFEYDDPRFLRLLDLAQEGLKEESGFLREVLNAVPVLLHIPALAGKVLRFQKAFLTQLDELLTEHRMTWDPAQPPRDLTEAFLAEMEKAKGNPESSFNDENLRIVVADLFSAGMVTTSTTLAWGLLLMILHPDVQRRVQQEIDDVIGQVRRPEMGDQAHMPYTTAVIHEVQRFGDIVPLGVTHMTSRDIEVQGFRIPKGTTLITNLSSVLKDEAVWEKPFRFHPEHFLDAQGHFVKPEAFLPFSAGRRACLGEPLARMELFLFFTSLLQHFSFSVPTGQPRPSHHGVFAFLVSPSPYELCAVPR

| Structure (SMILES) | CYP1A2 Efficacy (in parenthesis) (human CYP1A2) | pIC50 (human CYP1A2) | CYP3A4 Efficacy (in parenthesis) (CYP3A4) | pIC50 (CYP3A4) | CYP2C19 Efficacy (in parenthesis) (human CYP2C19) | pIC50 (human CYP2C19) | CYP2D6 Efficacy (in parenthesis) (human CYP2D6) | pIC50 (human CYP2D6) | Luciferase IC50 (half-maximal inhibitory concentration) [1] | CYP2C9 Efficacy (in parenthesis) (human CYP2C9) | pIC50 (human CYP2C9) | further results |
| --- | --- | --- | --- | --- | --- | --- | --- | --- | --- | --- | --- | --- |
| Cn1ccc2cc3c(cc21)CCN3C(=O)Nc1cccnc1 [SB-206553] | 0.07 ± 0.01 (-96 ± 6) % | 7.15 | 3.55 ± 0.64 (-82 ± 5) % | 5.45 |  |  |  |  |  |  |  | CYP2C19 IC50 (half-maximal inhibitory concentration) (human CYP2C19): Inactive; CYP2D6 IC50 (half-maximal inhibitory concentration) (human CYP2D6): Inactive; Luciferase Efficacy (in parenthesis) [1]: 4.77 ± 1.70 (-73 ± 12) %; pIC50 [1, 2]: 5.32; CYP2C9 IC50 (half-maximal inhibitory concentration) (human CYP2C9): Inactive |
| Cc1cc(CCC(=O)OCCOCCOCCOC(=O)CCc2cc(C)c(O)c(C(C)(C)C)c2)cc(C(C)(C)C)c1O |  |  | 2.56 ± 0.17 (-86 ± 4) % | 5.59 | 4.01 ± 1.12 (-130 ± 10) % | 5.40 | 9.78 ± 0 (-91 ± 3) % | 5.01 | Inactive | 0.55 ± 0.06 (-101 ± 5) % | 6.26 | CYP1A2 IC50 (half-maximal inhibitory concentration) (human CYP1A2): Inactive |
| Cc1oc(=O)oc1COC(=O)[C@@H]1N2C(=O)[C@@H](NC(=O)[C@H](N)c3ccccc3)[C@H]2SC1(C)C.Cl [Lenampicillin hydrochloride] |  |  |  | 6.21 |  |  |  |  | Inactive |  | 4.38 | CYP1A2 IC50 (half-maximal inhibitory concentration) (human CYP1A2): Inactive; CYP2C19 IC50 (half-maximal inhibitory concentration) (human CYP2C19): Inactive; CYP2D6 IC50 (half-maximal inhibitory concentration) (human CYP2D6): Inactive |
| Oc1cc2ccccc2c2ccccc12 [9-Phenanthrol] | 0.05 ± 0.01 (-99 ± 4) % | 7.30 | 6.1 ± 0.4 (-91 ± 4) % |  | 1.22 ± 0.17 (-132 ± 15) % | 5.91 | 2.53 ± 0.29 (-109 ± 3) % | 5.60 |  | 4.41 ± 1.07 (-106 ± 2) % | 5.36 | Luciferase Efficacy (in parenthesis) [1]: 71.29 ± 8.19 (-61 ± 21) %; pIC50 [1, 2]: 4.15 |
| COP(=S)(NC(C)C)Oc1ccc(C)cc1[N+](=O)[O-] (stereo not shown) [Amiprofos-methyl] | 12.35 ± 5.02 (-104 ± 9) % | 4.91 | 0.55 ± 0.08 (-87 ± 1) % | 6.26 | 0.41 ± 0.19 (-132 ± 27) % | 6.39 | 41.71 ± 5.32 (-58 ± 14) % | 4.38 | Inactive | 2.74 ± 0.38 (-109 ± 3) % | 5.56 |  |
| c1cc(CCCc2ccncc2)ccn1 [4,4'-Propane-1,3-diyldipyridine] |  | 5.81 |  | 6.06 |  | 5.82 |  | 5.81 |  |  | 5.30 | Luciferase IC50 [1]: Inactive |
| FC(F)(F)c1ccccc1-n1ccnc1 |  | 5.38 |  | 6.36 |  |  |  | 5.64 | Inactive |  | 5.08 | CYP2C19 Efficacy (human CYP2C19): 9.3 ± 5.41 (-172 ± 73) % |
| COS(=O)(=O)[O-].Cn1c(-c2ccccc2)cc(-c2ccccc2)[n+]1C [Difenzoquat metilsulfate] |  |  |  |  |  |  |  | 6.36 |  |  |  | CYP1A2 IC50 (human CYP1A2): Inactive; CYP3A4 IC50 (CYP3A4): Inactive; CYP2C19 IC50 (human CYP2C19): Inactive; Luciferase IC50 [1]: Inactive; CYP2C9 IC50 (human CYP2C9): Inactive |
| COC(=O)C1=C(C)NC(C)=C(C(=O)O[C@@H]2CCCN(Cc3ccccc3)C2)[C@@H]1c1cccc([N+](=O)[O-])c1.Cl (racemic) [rac Benidipine hydrochloride] |  | 4.60 |  | 6.08 |  | 5.19 |  | 4.87 | Inactive |  | 6.12 |  |
| N=C(Nc1ccccc1)Nc1ccccc1 [1,3-Diphenylguanidine] |  | 4.51 |  | 4.28 |  | 4.35 |  | 6.70 |  |  | 4.27 | Luciferase IC50 [1]: Inactive |
| COC(=O)c1cncn1C(C)c1ccccc1.Cl (stereo not shown) [Metomidate hydrochloride] |  |  |  | 6.60 |  | 5.39 |  | 5.25 | Inactive |  | 4.47 | CYP1A2 IC50 (half-maximal inhibitory concentration) (human CYP1A2): Inactive |
| N#Cc1c(-c2ccc(Cl)cc2)[nH]c(C(F)(F)F)c1Br [Tralopyril] |  | 6.48 |  |  |  | 4.46 |  | 4.18 | Inactive |  | 4.98 | CYP3A4 IC50 (half-maximal inhibitory concentration) (CYP3A4): Inactive |
| CCCC[N+](C)(CCCC)CCCC.O=S(=O)([N-]S(=O)(=O)C(F)(F)F)C(F)(F)F |  | 4.30 |  | 4.17 |  |  |  | 6.32 | Inactive |  | 5.23 | CYP2C19 IC50 (half-maximal inhibitory concentration) (human CYP2C19): Inactive |
| O=S(=O)([O-])C(F)(F)C(F)(F)C(F)(F)C(F)(F)C(F)(F)C(F)(F)C(F)(F)C(F)(F)F.[K+] [PFOS-K] |  |  |  |  |  | 4.40 |  |  | Inactive |  | 6.21 | CYP1A2 IC50 (half-maximal inhibitory concentration) (human CYP1A2): Inactive; CYP3A4 IC50 (half-maximal inhibitory concentration) (CYP3A4): Inactive; CYP2D6 IC50 (half-maximal inhibitory concentration) (human CYP2D6): Inactive |
| O=C(Nc1ccccc1SSc1ccccc1NC(=O)c1ccccc1)c1ccccc1 [2,2'-Dibenzoylaminodiphenyl disulfide] | 6.73 ± 1.52 (-88 ± 2) % | 5.17 | 3.23 ± 1.25 (-75 ± 7) % | 5.49 | 3.94 ± 2.15 (-155 ± 9) % | 5.40 | 37.5 ± 45.35 (15 ± 47) % |  |  | 0.57 ± 0.07 (-99 ± 3) % | 6.24 | CYP2D6 IC50 (half-maximal inhibitory concentration) (human CYP2D6): 37.5 ± 45.35 (15 ± 47) µM; Luciferase Efficacy (in parenthesis) [1]: 3.42 ± 1.53 (-57 ± 5) %; pIC50 [1, 2]: 5.47 |
| [I][Hg][I] [Mercury(II) iodide] |  | 5.43 |  | 5.60 |  | 5.98 |  | 5.78 |  |  | 6.27 | pIC50 ([1]; read-out: Luciferase IC50): 5.28 |
| c1cc[c]([Bi]([c]2ccccc2)[c]2ccccc2)cc1 [Triphenylbismuth] |  |  |  | 5.63 |  | 6.77 |  | 4.50 |  |  | 6.14 | CYP1A2 IC50 (human CYP1A2): Inactive; Luciferase IC50 [1]: Inactive |
| CCCC[P+](C)(CCCC)CCCC.COS(=O)(=O)[O-] [Tributylmethylphosphonium methyl sulfate] |  |  |  |  |  | 4.20 |  | 6.62 |  |  |  | CYP1A2 IC50 (human CYP1A2): Inactive; CYP3A4 IC50 (CYP3A4): Inactive; Luciferase IC50 [1]: Inactive; CYP2C9 IC50 (human CYP2C9): Inactive |
| C[C@@H]1CN(CCCn2c3ccccc3c3ccccc32)C[C@H](C)N1.Cl.Cl [Rimcazole dihydrochloride] |  | 4.97 |  | 5.74 |  |  |  |  |  |  |  | CYP2C19 IC50 (human CYP2C19): Inactive; CYP2D6 Efficacy (human CYP2D6): 0.4 ± 0.03 (-102 ± 4) %; Luciferase IC50 [1]: Inactive; CYP2C9 IC50 (human CYP2C9): Inactive |
| O=C(NCc1cccnc1)Nc1ccc([N+](=O)[O-])cc1 [Pyrinuron] | 15.45 ± 2.63 (-100 ± 0) % | 4.81 | 0.93 ± 0.12 (-76 ± 5) % | 6.03 | 3.28 ± 1.56 (-135 ± 13) % | 5.48 | 44.8 ± 15.98 (-64 ± 3) % | 4.35 | Inactive | 5.43 ± 0.35 (-105 ± 9) % | 5.27 |  |
| O=C1CCCc2c1cc1ccc3cccc4ccc2c1c34 [9,10-Dihydrobenzo[a]pyren-7(8H)-one] | 0.28 ± 0.05 (-100 ± 3) % | 6.55 | 9.09 ± 1.05 (-72 ± 4) % | 5.04 | 26.27 ± 7.32 (-125 ± 17) % | 4.58 |  |  |  | 5.32 ± 0.68 (-71 ± 3) % | 5.27 | CYP2D6 IC50 (half-maximal inhibitory concentration) (human CYP2D6): Inactive; Luciferase Efficacy (in parenthesis) [1]: 9.87 ± 1.68 (-53 ± 7) %; pIC50 [1, 2]: 5.01 |
| OC(c1ccc(Cl)cc1)(c1ccc(Cl)cc1)c1cccnc1 [Parinol] | 38.47 ± 2.51 (-60 ± 13) % | 4.41 | 2.75 ± 0.47 (-69 ± 3) % | 5.56 | 0.08 ± 0.01 (-151 ± 12) % | 7.10 | 14.17 ± 5.05 (-105 ± 7) % | 4.85 | Inactive | 0.4 ± 0.05 (-109 ± 9) % | 6.40 |  |
| C=CCc1cc(S(=O)(=O)c2ccc(O)c(CC=C)c2)ccc1O | 73.87 ± 5 (-42 ± 2) % | 4.13 | 20.01 ± 7.14 (-71 ± 11) % | 4.70 | 3.47 ± 1.89 (-136 ± 7) % | 5.46 | 6.26 ± 1.74 (-110 ± 9) % | 5.20 | Inactive | 0.4 ± 0.13 (-67 ± 11) % | 6.40 |  |
